Compared with `O=C(c1ccc(F)cc1)C1CCN(CCn2c(=O)[nH]c3ccsc3c2=O)CC1`, `O=C(O)c1cccc2c1[nH]c1ccc(F)cc12` is higher in melting point: 141 to 143 °C for the first, 254 °C for the second.

First: COc1cc(CC(=O)CCNCCOc2ccc(C(=O)O)cc2OC)ccc1NC(=O)Nc1ccccc1F
Second: Oc1ccc(C(c2ccc(O)cc2)c2ccccc2CN2CCCc3ccccc32)cc1
The melting point of the first is lower: 105 to 110 °C for the first, 160 to 163 °C for the second.

Compared with `NC(=O)C(Oc1ccc(Cl)cc1)(C(F)(F)F)C(F)(F)F`, `CC(C)c1nsc(N)c1C#N` is higher in melting point: 77 to 79 °C for the first, 130 to 132 °C for the second.
